target: PIK3CG (human) (UniProt P48736); experiment: Inhibition of PIK3CG Kinase Activity
Sequence (P48736 whole entry, looked up): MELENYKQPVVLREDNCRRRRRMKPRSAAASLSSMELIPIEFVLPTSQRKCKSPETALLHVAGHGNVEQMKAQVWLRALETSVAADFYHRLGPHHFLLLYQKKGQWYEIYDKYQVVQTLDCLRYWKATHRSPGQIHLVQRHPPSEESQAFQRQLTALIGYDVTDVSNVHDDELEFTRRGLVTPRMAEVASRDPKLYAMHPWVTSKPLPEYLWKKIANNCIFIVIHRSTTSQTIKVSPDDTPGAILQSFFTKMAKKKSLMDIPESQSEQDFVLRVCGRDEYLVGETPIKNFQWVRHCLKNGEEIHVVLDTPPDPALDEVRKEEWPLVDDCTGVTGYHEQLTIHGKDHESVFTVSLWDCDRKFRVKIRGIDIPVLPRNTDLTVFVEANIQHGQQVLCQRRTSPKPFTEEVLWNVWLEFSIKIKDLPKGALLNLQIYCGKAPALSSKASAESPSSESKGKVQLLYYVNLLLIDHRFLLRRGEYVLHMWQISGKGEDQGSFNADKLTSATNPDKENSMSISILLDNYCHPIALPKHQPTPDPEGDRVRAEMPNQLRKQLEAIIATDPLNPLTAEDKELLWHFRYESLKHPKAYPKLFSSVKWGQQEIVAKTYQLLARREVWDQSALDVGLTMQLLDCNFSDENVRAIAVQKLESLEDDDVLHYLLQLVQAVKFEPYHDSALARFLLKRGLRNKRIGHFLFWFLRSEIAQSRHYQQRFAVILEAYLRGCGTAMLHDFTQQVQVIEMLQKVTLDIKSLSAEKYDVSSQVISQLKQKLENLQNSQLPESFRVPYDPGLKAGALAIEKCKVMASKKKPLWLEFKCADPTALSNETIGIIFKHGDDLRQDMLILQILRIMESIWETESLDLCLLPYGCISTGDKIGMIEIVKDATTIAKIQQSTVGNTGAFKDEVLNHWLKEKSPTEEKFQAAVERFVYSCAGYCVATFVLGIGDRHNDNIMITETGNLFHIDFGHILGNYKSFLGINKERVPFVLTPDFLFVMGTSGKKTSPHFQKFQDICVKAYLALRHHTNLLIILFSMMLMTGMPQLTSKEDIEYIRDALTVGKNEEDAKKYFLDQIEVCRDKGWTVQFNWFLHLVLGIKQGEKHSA

SMILES | IC50 [µM]
Cn1nc(-c2cc(Br)c(O)c(Br)c2)c2cnc(N)nc21 | < 2
COc1cc(OC(F)(F)F)c(Cl)cc1-c1nn(C)c2nc(N)ncc12 | < 2
Cn1nc(-c2ccc(Cl)c(NS(C)(=O)=O)c2)c2cnc(N)nc21 | < 2
CC(C)NC(=O)c1cccc(-c2nn(C)c3nc(N)ncc23)c1 | < 2

Continued, values first:

IC50 [µM] | SMILES
< 2 | CC(=O)c1ccc(-c2nn(C)c3nc(N)ncc23)s1
< 2 | CCCOc1cc(F)ccc1-c1nn(C)c2nc(N)ncc12
< 2 | Cn1nc(-c2cc(Cl)ccc2O)c2cnc(N)nc21
